Here are results for 9 compounds from paper PMC9671377, “Label-free affinity screening, design and synthesis of inhibitors targeting the Mycobacterium tuberculosis L-alanine dehydrogenase” (PLOS ONE, 2022).

Each structure is given as a SMILES string. Converted amounts (≈) assume the structure as drawn. “And” between values parts separate entries of the source, which are not always exact repeats. Equal entries are not always repeated. Where two headings read alike, the source gives them in different places.

Series [1] concerns the target T1, Mtb L-alanine dehydrogenase (AlaDH, Rv2780) (Mycobacterium tuberculosis, UniProt P9WQB1). The series is classed as binding. The following applies: for Eluted AlaDH compared to N6-methyl ado / Integrated band volume / Ratio against N6-methyl ado / Eluted protein amount relative to N6-methyl ado: SDS gel densitometry; for Integrated band volume / Ratio against N6-methyl ado: Fig 3a.

Series [2] concerns the target Mycobacterium tuberculosis L-alanine dehydrogenase (Mycobacterium tuberculosis, UniProt P9WQB1). As to the kind of experiment: biochemical. Type of series: biochemical. The following applies: for Ki: competitive inhibition mode vs NAD, value (S.D.) in table.
In series [3] the target is T1, Mtb L-alanine dehydrogenase (AlaDH, Rv2780). The following applies: cited from earlier work.
Series [4] has as its target Mtb L-alanine dehydrogenase (AlaDH) (Mycobacterium tuberculosis, UniProt P9WQB1). Type of series: biochemical.
The subject of series [5] is Mtb aldehyde dehydrogenase (Rv0223c, AldDH). Type of series: biochemical, Mycobacterium tuberculosis. The settings on record: 1 mM inhibitor, 1 mM NAD, 10 mM propionaldehyde.
Series [6] concerns the target T2, human malate DH 2 (Homo sapiens, UniProt P40926).
T2 sequence (P40926 25-338): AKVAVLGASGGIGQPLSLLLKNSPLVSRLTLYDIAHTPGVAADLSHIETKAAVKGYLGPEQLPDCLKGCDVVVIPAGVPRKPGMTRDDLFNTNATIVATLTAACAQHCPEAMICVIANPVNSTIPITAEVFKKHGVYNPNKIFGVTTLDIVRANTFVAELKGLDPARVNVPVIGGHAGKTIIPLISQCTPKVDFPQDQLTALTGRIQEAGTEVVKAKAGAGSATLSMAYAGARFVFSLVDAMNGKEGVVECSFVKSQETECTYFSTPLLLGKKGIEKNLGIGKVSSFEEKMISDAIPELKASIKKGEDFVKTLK
As to the kind of experiment: Activity assay against human malate DH 2. The series is classed as biochemical.

Series [7] deals with Mtb in murine primary bone marrow-derived macrophages (BMDMs). The series is classed as cell-based, Mycobacterium tuberculosis H37Rv. The settings on record: 500 μM, 3 days.
For series [8], the system named is Mycobacterium tuberculosis H37Rv cells. As to the kind of experiment: Minimum inhibitory concentration assay (microfluidic agarose channel chip). Type of series: cell-based.
Setting [9] is: compound at 1 mM, SDS-PAGE of eluate.

T1 sequence (P9WQB1 whole entry, looked up): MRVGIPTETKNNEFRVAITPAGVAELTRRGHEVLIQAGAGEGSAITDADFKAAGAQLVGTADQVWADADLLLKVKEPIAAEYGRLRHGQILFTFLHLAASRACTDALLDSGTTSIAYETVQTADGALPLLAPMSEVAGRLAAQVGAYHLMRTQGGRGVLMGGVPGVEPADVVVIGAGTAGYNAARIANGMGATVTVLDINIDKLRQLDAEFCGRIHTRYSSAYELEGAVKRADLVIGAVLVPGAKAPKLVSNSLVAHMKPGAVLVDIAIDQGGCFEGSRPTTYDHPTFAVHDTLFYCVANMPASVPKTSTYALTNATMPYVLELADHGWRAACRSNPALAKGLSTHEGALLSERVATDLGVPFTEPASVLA
Chain of Mtb L-alanine dehydrogenase (AlaDH) (P9WQB1 whole entry, looked up): as above
Chain of Mycobacterium tuberculosis L-alanine dehydrogenase (P9WQB1 whole entry, looked up): as above

The term Ki denotes the equilibrium dissociation constant of an inhibitor or competing ligand from its target. Lower therefore signals higher affinity. The melting point is the temperature of the solid-liquid transition. As for `CCNc1ncnc2c1ncn2[C@@H]1O[C@H](CO)[C@@H](O)[C@H]1O` [N6-ethyl adenosine], the melting point fell in the range of 197.1 to 198.4 °C. For the same compound, in [1], the “Eluted AlaDH compared to N6-methyl ado” value was 2.12 fold, the Integrated band volume is 87,674 and the “Ratio against N6-methyl ado” value amounted to 2.12. Also, in series [2], the Ki was 520 µM and 521 µM.
In the case of `NC(=O)C1=CN([C@@H]2O[C@H](COP(=O)(O)OP(=O)(O)OC[C@H]3O[C@@H](n4cnc5c(N)ncnc54)[C@H](O)[C@@H]3O)[C@@H](O)[C@H]2O)C=CC1` [NADH], the “Binding in DLAC assay (previous data)” value in [3] is “bound strongly”.
On to `Nc1ncnc2c1ncn2[C@@H]1O[C@H](COP(=O)(O)OP(=O)(O)OP(=O)(O)O)[C@@H](O)[C@H]1O` [ATP, reference compound], for which, in series [1] (setting [9]), the “Elution of AlaDH from F3GA dye resin (displacement of the dye) in DLAC” value (from here on “Elution of AlaDH from F3GA dye resin”) was “eluted the target AlaDH enzyme”. Besides, the “Binding in DLAC assay (previous data)” value in [3] was “bound strongly”.
Regarding `Cc1nc(N)c2ncn([C@@H]3O[C@H](CO)[C@@H](O)[C@H]3O)c2n1` [D28, C2-methyl adenosine], in series [1], the “Elution of AlaDH from F3GA dye resin” value was “did not show displacement”. Moreover, in series [4], the “Initial velocity (vi) of the AlaDH reaction with compound” value was 1.769 x10^-3 [NADH]OD340/min and the “Reduction of initial velocity (vi) of the AlaDH reaction” value is given as 4%.
With `CCCNc1ncnc2c1ncn2[C@@H]1O[C@H](CO)[C@@H](O)[C@H]1O` [N6-propyl adenosine], the melting point was 162 to 165.4 °C. In [1], the “Eluted AlaDH compared to N6-methyl ado” value was found to be 3.05 fold, the Integrated band volume is 126,378 and the “Ratio against N6-methyl ado” value is listed as 3.05. Also, in series [2], the inhibition constant (Ki) was 110 µM and 113 µM.
Turning to `CC(=O)Nc1ncnc2c1ncn2[C@@H]1O[C@H](CO)[C@@H](O)[C@H]1O` [N6-acetyl ado], in series [1], the “Eluted protein amount relative to N6-methyl ado” value was determined as 12%, the Integrated band volume is given as 5,015 and the “Ratio against N6-methyl ado” value came to 0.12. In [2], the “Inhibitory effect on AlaDH activity” value is “did not reveal any inhibitory effect”.
For the compound `CC(C)CNc1ncnc2c1ncn2[C@@H]1O[C@H](CO)[C@@H](O)[C@H]1O` [N6-isobutyl adenosine], in series [1], the Integrated band volume was 143,252 and the “Ratio against N6-methyl ado” value was found to be 3.45. For the same compound, the “Eluted AlaDH compared to N6-methyl ado” value in series [1] (listed as N6-isobutyl ado) is 3.45 fold and ~ 3.5 fold. The “vi of wild-type AlaDH after adding compound” value in series [4] ([…], without compound vi 1.922 x10^-3) was 0.734 x10^-3 [NADH]OD340/min. Also, the Ki in series [2] was 80 µM and 79 µM. For the same compound, the “Inhibition of AldDH activity” value in [5] is “no inhibition”. Moreover, the “Inhibition of human malate DH 2 activity” value in series [6] is given as “no noticeable inhibition”.
By MIC is commonly meant the least concentration at which growth counts as inhibited. A higher MIC goes with a less susceptible organism. On to `CNc1ncnc2c1ncn2[C@@H]1O[C@H](CO)[C@@H](O)[C@H]1O` [D30, N6-methyl adenosine], for which, in series [1], the Integrated band volume is 41,418 and the “Ratio against N6-methyl ado” value was found to be 1. Moreover, the “Elution of AlaDH from F3GA dye resin” value in [1] (setting [9]) is “displaced the F3GA dye from AlaDH”. For the same compound, the “Reduction of initial velocity (vi) of the AlaDH reaction” value in [4] (1 mM inhibitor, 1 mM NAD, 17 mM L-alanine) is on record as 33%. In addition, the “Initial velocity (vi) of the AlaDH reaction with compound” value in series [4] (no inhibition vi 1.842x10^-3, 1 mM inhibitor) was 1.231x10^-3 [NADH]OD340/min. Besides, the Ki in series [2] is 860 µM and 861 µM. Further, the “Inhibition of AldDH activity” value in series [5] is reported as “none”. Also, in series [6], the “Inhibition of human malate DH 2 activity” value is “no noticeable inhibition”. Moreover, in [7], the “Intracellular growth of Mtb in BMDMs” value was “significantly decreased”. Also, the minimum inhibitory concentration (MIC) in series [8] was approximately 10 µg/mL (≈ 35.6 µM).
For `CC(C)C(=O)Nc1ncnc2c1ncn2[C@@H]1O[C@H](CO)[C@@H](O)[C@H]1O` [N6-isobutyoyl adenosine], in [1], the “Eluted protein amount relative to N6-methyl ado” value was 70%, the Integrated band volume is on record as 29,087 and the “Ratio against N6-methyl ado” value was determined as 0.70. In series [2], affinity was put at a Ki of 3710 µM.
